US20200071357A1, “ANTIMICROBIAL PEPTIDES” (UNIVERSITETET I TROMSØ - NORGES ARKTISKE UNIVERSITET, priority 2016, published 2020)
Like-named read-outs stand apart in the source and are kept apart here. Where no end group is shown, it is not given here.

Key:
Assay type in all cases: cell-based
human red blood cells = assay: Haemolytic assay; details: for Haemolysis (%) 25 μM: peptide 25 μM; for Haemolysis (%) 25 μM / Haemolysis (%) 200 μM: human red blood cells, one hour at 37° C.; for Haemolysis (%) 200 μM: peptide 200 μM
Description: Selected synthesised peptide analogues were also screened for haemolytic activity using human red blood cells as described previously (Sperstad, S. V., et al. (2009) Dev. Comp. Immunol. 33, 583-591). The assay was performed on 96-well U-shaped microtiter plates (Nagle Nunc) with 50 μl peptide sample, 40 μl phosphate-buffered saline (PBS) and 10 μl red blood cells. After one hour of incubation at 37° C. in a shaker, the plate was centrifuged at 200 g for 5 min and the supernatants (60 μl) were carefully transferred to a new flat-bottomed polycarbonate microtiter plate (Nagle Nunc) and the release of haemoglobin (absorbance at 550 nm) was measured on a Synergy H1 multimode reader (BioTek, Vt., USA). Cell suspension added 0.05% Triton X-100 (Sigma-Aldrich, Mo., USA) in PBS served as positive (100% haemolysis) control and cell suspension added PBS served as negative (0% haemolysis, blank) control. The percent haemolysis was calculated using the formula [(Asample-Abaseline)/(Atriton-Abaseline)]×100. The cytotoxic peptide melittin (Sigma-Aldrich) was used as a positive control peptide and for comparison. The experiment was performed in triplicates with peptide concentrations ranging from 200 μM to 1.56 μM in two-fold dilutions.

[1] = tested on: Staphylococcus aureus (Sa, ATCC 9144)
Description: (§1) The peptides were screened for antibacterial activity against two strains of Gram-positive and two strains of Gram-negative bacteria; Corynebacterium glutamicum (Cg, ATCC 13032), Staphylococcus aureus (Sa, ATCC 9144), Pseudomonas aeruginosa (Pa, ATCC 27853) and Escherichia coli (Ec, ATCC 25922).
(§2) Cultures stored at −80° C. in glycerol were transferred to Müller-Hinton plates (MH, Difco, Lawrence, Kans., USA) and incubated for 24 h at 35° C. A few colonies of each bacterial strain were transferred to 5 ml liquid MH medium and left shaking at room temperature overnight at 600 rpm. Cultures of actively growing bacteria (20 μl) were inoculated in 5 ml MH medium and left shaking for 2 h at room temperature. The antibacterial assays were performed as previously described by Sperstad, S. V., et al. ((2009) Mol. Immunol. 46, 2604-2612) with the following exception: bacterial cultures were diluted with medium to 2.5-3×10^4 bacteria/ml concentrations. An aliquot of 50 μl (1250-1500 bacterial cells) was added to each well in 96-well Nunclon™ microtiter plates (Nagle Nunc Int., Denmark) preloaded with peptide solution (50 μl).
(§3) The microtiter plates were incubated for 24 h at 35° C. with optical density recorded every hour using an Envision 2103 multilabel reader, controlled by a Wallac Envision manager (PerkinElmer, Conn., USA). Minimum inhibitory concentration (MIC) was defined as a sample showing complete inhibition (as measured by optical density at 595 nm) compared to the negative (growth) controls, consisting of bacteria and water. Oxytetracycline (20 μM) served as a positive (inhibition) control.
(§4) The synthetic peptides were tested for antibacterial activity in concentrations ranging from 200 to 0.1 μM in two-fold dilutions. All tests were performed in triplicates.

[2] = tested on: Corynebacterium glutamicum (Cg, ATCC 13032)
Description: as §1, §2, §3, §4

[3] = tested on: Escherichia coli (Ec, ATCC 25922)
Description: as §1, §2, §3, §4

[4] = tested on: Pseudomonas aeruginosa (Pa, ATCC 27853)
Description: as §1, §2, §3, §4

[5] = tested on: A. pullulans, Rhodotorula sp. and C. albicans
Description: (§5) The synthetic peptides were also screened for antifungal activity against Candida albicans (ATCC 10231), Aureobasidium pullulans and Rhodotorula sp. (the last two were obtained from Professor Arne Tronsmo, The Norwegian University of Life Sciences, As, Norway). The antifungal assay was performed as previously described (Sperstad, S. V., et al. (2009) Dev. Comp. Immunol. 33, 583-591). Briefly, fungal spores were dissolved in potato dextrose broth (Difco, Lawrence, Kans., USA) to a concentration of 4×10^5 spores/ml. The spores (50 μl) were inoculated on 96-well Nunclon™ microtiter plates containing the synthetic peptides (50 μl) dissolved in MQ-H2O. […] The negative (growth) control consisted of medium and fungal solution. The peptides were tested for activity in concentrations ranging from 100 to 0.1 μM in two-fold serial dilutions. All tests were performed in triplicates.

[6] = tested on: Candida albicans (ATCC 10231); details: ATCC 10231, 24 h
Description: as §5

Aureobasidium pullulans = details: 24 h
Description: as §5

Rhodotorula sp. = details: 24 h
Description: as §5

Substance	haemolytic activity (human red blood cells; at concentrations closer to the MIC-values)	Haemolysis (%) 25 μM (human red blood cells) [%]	Haemolysis (%) 200 μM (human red blood cells) [%]	Haemolysis (%) 200 μM (human red blood cells; listed as lead peptide) [%]	MIC (μM) Sa ([1]; ATCC 9144) [µM]	MIC (μM) Sa ([1]; ATCC 9144, 24 h) [µM]	MIC (μM) Cg ([2]; ATCC 13032) [µM]	MIC (μM) Ec ([3]; ATCC 25922) [µM]	MIC (μM) Ec ([3]; ATCC 25922, 24 h) [µM]	MIC (μM) Pa ([4]; ATCC 27853) [µM]	MIC (μM) Pa ([4]; ATCC 27853, 24 h) [µM]	antifungal MICs (range over the three fungi) [5] [µM]	MIC (μM) Cg ([2]; ATCC 13032, 24 h) [µM]	MIC (μM) C. albicans [6] [µM]	MIC (μM) A. pullulans (Aureobasidium pullulans) [µM]	MIC (μM) Rhodotorula sp. (Rhodotorula sp.) [µM]	Haemolysis (%) 200 μM (human red blood cells; listed as full HC) [%]
GWWRRTVAKVRK-NH2 [HC(1-12)A8K12, GWWRRTVAKVRK-NH2]	negligible	2.4	25.1	25	6.3	25	0.4	6.3	6.3	6.3	3.1	1.6 to 6.3					
GWWRRTVDKVRNAGRK [HC(1-16), GWWRRTVDKVRNAGRK]		0.0	0.0			200			6.3		12.5		0.8	100	50	25	
GWWRRTVDKVRNAGRKVAGFASKACGALGH [HC, reference compound]		13.5	74.6			3.1			0.8		1.6		0.4	100	12.5	12.5	75
